Measured values published in ChEMBL document CHEMBL5653631, “A Potent and Selective ULK1 Inhibitor Suppresses Autophagy and Sensitizes Cancer Cells to Nutrient Stress” (iScience, 2018).
Values belong to the molecule of their own block, whether it stands above or below them.

Legend:
[1] = target: Mitogen-activated protein kinase 10 (Homo sapiens) (UniProt P53779); assay: Inhibition of human recombinant JNK3 at 500 nM in presence of ATP by radiometric assay relative to control
[2] = target: Ribosomal protein S6 kinase alpha-2 (Homo sapiens) (UniProt Q15349); assay: Inhibition of human recombinant RSK3 at 500 nM related to control ULK1
[3] = target: RAC-gamma serine/threonine-protein kinase (Homo sapiens) (UniProt Q9Y243); assay: Inhibition of human recombinant AKT3 at 15 nM related to control ULK1
[4] = target: T1, cGMP-dependent protein kinase 2 (Homo sapiens) (UniProt Q13237); assay: Inhibition of human recombinant PKG2 at 15 nM in presence of ATP by radiometric assay relative to control
T1 sequence (whole entry): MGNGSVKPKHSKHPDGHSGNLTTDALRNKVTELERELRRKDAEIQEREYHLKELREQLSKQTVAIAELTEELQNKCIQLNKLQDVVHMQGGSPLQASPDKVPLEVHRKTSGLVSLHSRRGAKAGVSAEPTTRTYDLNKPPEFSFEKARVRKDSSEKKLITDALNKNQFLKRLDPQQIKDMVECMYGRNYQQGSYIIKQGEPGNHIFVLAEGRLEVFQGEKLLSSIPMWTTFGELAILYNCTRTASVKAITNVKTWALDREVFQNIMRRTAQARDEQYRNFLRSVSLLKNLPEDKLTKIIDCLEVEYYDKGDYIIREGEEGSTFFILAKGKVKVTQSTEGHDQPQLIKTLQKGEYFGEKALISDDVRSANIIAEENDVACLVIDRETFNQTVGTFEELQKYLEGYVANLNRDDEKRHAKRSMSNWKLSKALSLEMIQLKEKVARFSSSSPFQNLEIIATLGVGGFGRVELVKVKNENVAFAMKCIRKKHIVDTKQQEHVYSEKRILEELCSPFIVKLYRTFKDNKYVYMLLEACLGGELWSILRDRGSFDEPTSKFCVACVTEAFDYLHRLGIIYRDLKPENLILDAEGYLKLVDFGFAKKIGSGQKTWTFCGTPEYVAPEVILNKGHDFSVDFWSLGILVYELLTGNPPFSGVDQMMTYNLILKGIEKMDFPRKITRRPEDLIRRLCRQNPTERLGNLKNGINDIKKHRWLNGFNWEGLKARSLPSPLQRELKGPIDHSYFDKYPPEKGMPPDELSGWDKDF

[5] = target: PAS domain-containing serine/threonine-protein kinase (Homo sapiens) (UniProt Q96RG2); assay: Inhibition of human recombinant PASK at 15 nM in presence of ATP by radiometric assay relative to control
[6] = target: T2, Serine/threonine-protein kinase TAO3 (Homo sapiens) (UniProt Q9H2K8); assay: Inhibition of human recombinant TAO3 at 40 nM in presence of ATP by radiometric assay relative to control
T2 sequence (whole entry): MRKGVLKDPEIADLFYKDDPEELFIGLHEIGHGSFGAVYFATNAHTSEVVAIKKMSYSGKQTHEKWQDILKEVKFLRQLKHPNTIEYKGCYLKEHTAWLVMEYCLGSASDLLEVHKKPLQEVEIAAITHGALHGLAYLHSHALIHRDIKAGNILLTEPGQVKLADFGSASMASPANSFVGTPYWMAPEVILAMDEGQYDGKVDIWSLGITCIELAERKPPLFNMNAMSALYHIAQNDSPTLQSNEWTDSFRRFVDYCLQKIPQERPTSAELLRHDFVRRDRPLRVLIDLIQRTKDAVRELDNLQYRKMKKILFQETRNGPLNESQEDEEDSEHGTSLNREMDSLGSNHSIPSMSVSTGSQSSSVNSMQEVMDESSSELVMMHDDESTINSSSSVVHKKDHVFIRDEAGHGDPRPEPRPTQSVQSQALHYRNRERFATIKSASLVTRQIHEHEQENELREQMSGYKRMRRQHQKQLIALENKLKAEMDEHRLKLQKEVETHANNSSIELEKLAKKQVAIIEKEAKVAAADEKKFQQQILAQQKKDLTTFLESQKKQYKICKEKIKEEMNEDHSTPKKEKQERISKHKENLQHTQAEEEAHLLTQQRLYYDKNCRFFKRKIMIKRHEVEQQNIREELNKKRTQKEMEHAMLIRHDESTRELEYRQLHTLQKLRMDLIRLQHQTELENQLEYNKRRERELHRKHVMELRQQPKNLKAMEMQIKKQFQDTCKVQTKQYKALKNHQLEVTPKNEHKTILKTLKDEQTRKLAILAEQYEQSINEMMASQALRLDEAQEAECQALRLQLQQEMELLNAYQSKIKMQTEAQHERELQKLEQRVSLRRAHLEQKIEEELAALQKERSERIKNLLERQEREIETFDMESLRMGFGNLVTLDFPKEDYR

[7] = target: Serine/threonine-protein kinase pim-3 (Homo sapiens) (UniProt Q86V86); assay: Inhibition of human recombinant PIM3 at 40 nM related to control ULK1
[8] = target: Ribosomal protein S6 kinase alpha-1 (Homo sapiens) (UniProt Q15418); assay: Inhibition of human recombinant RSK1 at 40 nM related to control ULK1
[9] = target: Ephrin type-A receptor 5 (Homo sapiens) (UniProt P54756); assay: Inhibition of human recombinant EphA5 at 40 nM related to control ULK1

Sequence of Ribosomal protein S6 kinase alpha-1 (Homo sapiens) (Q15418 whole entry): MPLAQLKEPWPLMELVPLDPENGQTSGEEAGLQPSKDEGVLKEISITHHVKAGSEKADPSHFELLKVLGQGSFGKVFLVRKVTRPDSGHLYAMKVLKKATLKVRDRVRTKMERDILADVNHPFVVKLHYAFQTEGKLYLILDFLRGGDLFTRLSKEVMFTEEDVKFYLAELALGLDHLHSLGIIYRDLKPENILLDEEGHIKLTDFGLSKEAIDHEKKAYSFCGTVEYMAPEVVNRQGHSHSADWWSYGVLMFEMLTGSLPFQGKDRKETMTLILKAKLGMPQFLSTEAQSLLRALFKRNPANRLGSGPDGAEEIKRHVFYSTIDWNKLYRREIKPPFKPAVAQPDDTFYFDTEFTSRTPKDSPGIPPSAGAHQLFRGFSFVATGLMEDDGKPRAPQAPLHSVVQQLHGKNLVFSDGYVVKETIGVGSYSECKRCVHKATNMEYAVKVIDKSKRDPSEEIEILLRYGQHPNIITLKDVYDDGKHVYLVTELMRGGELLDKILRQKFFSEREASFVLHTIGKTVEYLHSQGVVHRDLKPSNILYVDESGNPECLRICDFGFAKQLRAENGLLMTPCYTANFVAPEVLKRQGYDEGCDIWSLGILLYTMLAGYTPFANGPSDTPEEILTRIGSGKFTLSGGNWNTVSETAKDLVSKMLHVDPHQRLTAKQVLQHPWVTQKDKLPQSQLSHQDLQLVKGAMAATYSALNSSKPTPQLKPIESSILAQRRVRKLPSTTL
Sequence of PAS domain-containing serine/threonine-protein kinase (Homo sapiens) (Q96RG2 whole entry, the tested form may be a part): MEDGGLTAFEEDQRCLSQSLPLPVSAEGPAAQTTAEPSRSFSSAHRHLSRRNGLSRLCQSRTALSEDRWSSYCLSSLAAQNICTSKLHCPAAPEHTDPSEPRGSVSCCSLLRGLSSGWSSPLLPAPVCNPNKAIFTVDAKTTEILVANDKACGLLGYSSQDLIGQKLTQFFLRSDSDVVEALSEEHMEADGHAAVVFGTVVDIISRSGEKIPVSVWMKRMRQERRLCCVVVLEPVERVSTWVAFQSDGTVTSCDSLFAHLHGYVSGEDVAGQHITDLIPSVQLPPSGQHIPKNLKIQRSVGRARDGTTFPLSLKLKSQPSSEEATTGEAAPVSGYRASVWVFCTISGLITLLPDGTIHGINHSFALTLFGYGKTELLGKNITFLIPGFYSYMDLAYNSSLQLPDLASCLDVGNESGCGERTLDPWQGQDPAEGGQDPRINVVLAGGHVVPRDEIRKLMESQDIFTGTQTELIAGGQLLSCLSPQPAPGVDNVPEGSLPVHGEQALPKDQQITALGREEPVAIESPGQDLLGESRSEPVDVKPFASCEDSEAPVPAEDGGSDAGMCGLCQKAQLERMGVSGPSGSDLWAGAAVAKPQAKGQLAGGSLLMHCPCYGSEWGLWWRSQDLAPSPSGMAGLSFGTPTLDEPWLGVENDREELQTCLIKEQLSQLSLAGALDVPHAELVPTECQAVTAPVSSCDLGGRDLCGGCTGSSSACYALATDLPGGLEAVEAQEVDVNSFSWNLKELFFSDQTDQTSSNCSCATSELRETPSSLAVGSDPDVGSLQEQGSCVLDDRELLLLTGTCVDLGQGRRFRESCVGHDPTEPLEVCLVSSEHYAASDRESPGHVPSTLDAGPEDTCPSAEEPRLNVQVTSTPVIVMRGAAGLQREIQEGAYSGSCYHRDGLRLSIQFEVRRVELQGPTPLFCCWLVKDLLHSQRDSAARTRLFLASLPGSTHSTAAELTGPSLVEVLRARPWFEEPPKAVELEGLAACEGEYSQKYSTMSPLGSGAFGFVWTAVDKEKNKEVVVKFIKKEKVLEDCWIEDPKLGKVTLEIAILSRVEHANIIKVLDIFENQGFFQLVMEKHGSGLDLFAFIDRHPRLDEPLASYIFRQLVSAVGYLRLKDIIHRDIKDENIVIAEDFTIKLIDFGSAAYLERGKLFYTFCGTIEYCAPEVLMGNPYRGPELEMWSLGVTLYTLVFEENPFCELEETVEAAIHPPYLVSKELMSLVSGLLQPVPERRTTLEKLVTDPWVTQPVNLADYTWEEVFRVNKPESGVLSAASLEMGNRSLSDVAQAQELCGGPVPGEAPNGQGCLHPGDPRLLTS
Sequence of Ribosomal protein S6 kinase alpha-2 (Homo sapiens) (Q15349 whole entry): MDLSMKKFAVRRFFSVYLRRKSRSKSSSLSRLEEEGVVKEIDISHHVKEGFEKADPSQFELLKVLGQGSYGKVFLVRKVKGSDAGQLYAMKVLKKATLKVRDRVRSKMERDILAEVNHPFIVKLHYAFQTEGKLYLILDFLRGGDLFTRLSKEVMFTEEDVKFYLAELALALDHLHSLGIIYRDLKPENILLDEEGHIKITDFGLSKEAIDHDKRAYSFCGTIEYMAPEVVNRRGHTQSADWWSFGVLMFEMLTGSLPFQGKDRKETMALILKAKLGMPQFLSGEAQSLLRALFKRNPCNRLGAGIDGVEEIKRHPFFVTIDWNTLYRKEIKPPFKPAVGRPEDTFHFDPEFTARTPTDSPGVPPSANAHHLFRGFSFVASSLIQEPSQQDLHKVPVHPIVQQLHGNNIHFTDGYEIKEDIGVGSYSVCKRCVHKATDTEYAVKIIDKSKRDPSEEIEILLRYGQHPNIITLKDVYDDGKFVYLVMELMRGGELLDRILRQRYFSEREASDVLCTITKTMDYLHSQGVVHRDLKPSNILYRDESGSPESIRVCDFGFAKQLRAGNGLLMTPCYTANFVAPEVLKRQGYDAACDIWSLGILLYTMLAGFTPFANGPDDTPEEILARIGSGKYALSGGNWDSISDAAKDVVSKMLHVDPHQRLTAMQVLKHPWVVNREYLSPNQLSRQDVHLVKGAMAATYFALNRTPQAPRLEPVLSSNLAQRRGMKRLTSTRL
Sequence of RAC-gamma serine/threonine-protein kinase (Homo sapiens) (Q9Y243 whole entry): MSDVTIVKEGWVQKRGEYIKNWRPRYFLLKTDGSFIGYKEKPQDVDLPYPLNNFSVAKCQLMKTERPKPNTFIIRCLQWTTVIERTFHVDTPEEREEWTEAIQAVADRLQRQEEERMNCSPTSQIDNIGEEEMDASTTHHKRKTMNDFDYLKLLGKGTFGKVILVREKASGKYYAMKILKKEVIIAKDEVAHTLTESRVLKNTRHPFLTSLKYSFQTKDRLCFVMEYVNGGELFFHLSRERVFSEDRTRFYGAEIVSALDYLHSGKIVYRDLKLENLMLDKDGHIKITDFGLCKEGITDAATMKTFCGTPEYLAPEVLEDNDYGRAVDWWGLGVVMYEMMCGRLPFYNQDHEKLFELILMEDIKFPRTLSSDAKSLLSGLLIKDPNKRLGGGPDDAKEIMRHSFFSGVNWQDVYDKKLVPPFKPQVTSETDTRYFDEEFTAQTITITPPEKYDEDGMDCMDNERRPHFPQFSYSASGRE
Sequence of Mitogen-activated protein kinase 10 (Homo sapiens) (P53779 whole entry): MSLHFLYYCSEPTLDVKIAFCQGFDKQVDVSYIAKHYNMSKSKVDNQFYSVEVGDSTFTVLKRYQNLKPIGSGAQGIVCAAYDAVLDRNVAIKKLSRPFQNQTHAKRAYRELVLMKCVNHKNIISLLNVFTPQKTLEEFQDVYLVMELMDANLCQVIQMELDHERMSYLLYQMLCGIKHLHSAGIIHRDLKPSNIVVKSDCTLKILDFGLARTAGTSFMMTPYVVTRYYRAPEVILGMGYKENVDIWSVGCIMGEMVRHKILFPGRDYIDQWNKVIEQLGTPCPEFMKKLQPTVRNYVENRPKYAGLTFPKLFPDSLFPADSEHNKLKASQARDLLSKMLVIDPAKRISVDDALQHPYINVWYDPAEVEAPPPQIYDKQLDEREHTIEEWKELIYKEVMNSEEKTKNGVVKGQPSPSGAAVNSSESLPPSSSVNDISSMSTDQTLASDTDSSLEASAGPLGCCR

inhibition [1]: 3%
fold change (FC) [2]: 0.66
SMILES: CNC(=O)c1ccccc1Oc1nc(Nc2cc(OC)c(OC)c(OC)c2)ncc1Br

fold change (FC) [3]: 0.09
inhibition [4]: 4%
inhibition [5]: 0%
SMILES: CC(C)[C@H](NC(=O)c1cc(-c2cnn3cc(-c4ccc(OCCN5CCCCC5)cc4)cnc23)cs1)C(F)(F)F

inhibition [6]: 0%
fold change (FC) [7]: 0
fold change (FC) [8]: 0.11
fold change (FC) [9]: 0
SMILES: O=C(N[C@@H](C1CC1)C(F)(F)F)c1cc(-c2cnn3cc(-c4ccc(F)cc4)cnc23)cs1
